Where “and” joins values, the source holds several entries; their conditions need not be identical. Identical values can stand only once.

The target of the test is T1, mTOR (Homo sapiens, UniProt P42345).
T1 construct: capturing of endogenously expressed target proteins from cell extracts by a bead-immobilized capturing ligand; endogenous in cells; host or cells: HuT-78 cells (ECACC 88041901), cell lysate
The test is described as follows: mTOR kinobeads assay (competition-binding assay). The note with it: HuT-78 cell extract, endogenously expressed mTOR, bead-immobilized capturing ligand; mean of multiple experiments; read-out: mean pIC50, affinity for mTOR (converted). Summed up:
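Competition binding of endogenous mTOR from HuT-78 cell lysate (250 μg, 5 mg/ml) to immobilized Compound A/C beads, 2 h at 4 °C, pH 7.5, 2% DMSO, 11-point series. Bead-bound mTOR eluted, dot-blotted, detected by anti-mTOR infrared immunofluorescence; normalized to DMSO and 100 μM Compound B controls, 4-parameter fit to pIC50.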
For `CNCc1cc2nc(-c3cc(CS(C)(=O)=O)cc(N4CCOC[C@@H]4C)n3)ccc2[nH]1` [Example 6, (S)—N-methyl-1-(5-(6-(3-methylmorpholino)-4-((methylsulfonyl)methyl)pyridin-2-yl)-1H-pyrrolo[3,2-b]pyridin-2-yl)methanamine], the IC50 was 2.51 to 31.6 nM and 2.51 to 316 nM.

For the molecule `CC[C@H]1COCCN1c1cc(C2(S(=O)(=O)N(C)C)CCOCC2)cc(-c2ccc3[nH]c(CNC)cc3n2)n1` [Example 31, 4-{2-[(3S)-3-ethylmorpholin-4-yl]-6-{2-[(methylamino)methyl]-1H-pyrrolo[3,2-b]pyridin-5-yl}pyridin-4-yl}-N,N-dimethyloxane-4-sulfonamide], the IC50 is 2.51 to 31.6 nM and 2.51 to 316 nM.

Regarding `CNCc1cc2nc(-c3cc(C(C)(C)S(C)(=O)=O)cc(N4C5CCCC4COC5)n3)ccc2[nH]1` [Example 5, 1-(5-(6-(3-oxa-9-azabicyclo[3.3.1]nonan-9-yl)-4-(2-(methylsulfonyl)propan-2-yl)pyridin-2-yl)-1H-pyrrolo[3,2-b]pyridin-2-yl)-N-methylmethanamine], the IC50 is 2.51 to 316 nM.

Turning to `CNCc1cc2nc(-c3cc(C4(S(C)(=O)=O)CC4)cc(N4CCOC[C@@H]4C)n3)ccc2[nH]1` [Example 20, ({5-[4-(1-methanesulfonylcyclopropyl)-6-[(3S)-3-methylmorpholin-4-yl]pyridin-2-yl]-1H-pyrrolo[3,2-b]pyridin-2-yl}methyl)(methyl)amine], the IC50 is 2.51 to 316 nM.

(Values after patent US11254671B2, “Chemical compounds” (GLAXOSMITHKLINE INTELLECTUAL PROPERTY DEVELOPMENT LIMITED, priority 2017, dated 2022).)
